What all share (assay type): cell-based
The subject of one assay is BK Polyoma virus. The assay is described as follows: Comparative data for inactivation with BPL: BK Polyoma virus. The settings on record: BPL 0.05%; 16 hours +2-8° C. (then 2 hours 37° C. for BPL hydrolysis).
Assay [1] concerns Enteroviruses (Coxsackie virus, Echovirus). The assay is described as follows: Comparative data for inactivation with BPL: Enteroviruses. Particulars: BPL 0.05%; 16 hours +2-8° C. (then 2 hours 37° C. for BPL hydrolysis).
Assay [2] relates to Mammalian orthoreovirus, type 3 (strain Dearing, ATCC VR-824).

With `O=C1CCO1` [BPL, β-propiolactone], the LRV with BK Polyoma virus was 2.1; in assay [1], 4-5.
Turning to `COO` [Inactivator 072, Methylhydroperoxide], in assay [2], the “Reduction (of reovirus titre)” value was 0.9 log 10 and the “reovirus inactivation, in words” value was “performed poorly”.

Source of the values: US9426989B2 (priority 2010, dated 2016).
